Measurements reported in patent US11208412B2 (DAEGU-GYEONGBUK MEDICAL INNOVATION FOUNDATION, priority 2017, dated 2021).

What was measured:
Assay in all cases: Kinase selectivity, DiscoverX scanMAX Kinase assay panel (% control)
Type in all cases: binding
[1] = target: T1, kinases of the scanMAX Kinase assay panel (Homo sapiens, UniProt Q96D53); conditions: ADCK4; 1 uM
T1 construct: purchased DiscoverX Co. (contract measurement) scanMAX Kinase assay panel
T1 sequence (Q96D53 1-544): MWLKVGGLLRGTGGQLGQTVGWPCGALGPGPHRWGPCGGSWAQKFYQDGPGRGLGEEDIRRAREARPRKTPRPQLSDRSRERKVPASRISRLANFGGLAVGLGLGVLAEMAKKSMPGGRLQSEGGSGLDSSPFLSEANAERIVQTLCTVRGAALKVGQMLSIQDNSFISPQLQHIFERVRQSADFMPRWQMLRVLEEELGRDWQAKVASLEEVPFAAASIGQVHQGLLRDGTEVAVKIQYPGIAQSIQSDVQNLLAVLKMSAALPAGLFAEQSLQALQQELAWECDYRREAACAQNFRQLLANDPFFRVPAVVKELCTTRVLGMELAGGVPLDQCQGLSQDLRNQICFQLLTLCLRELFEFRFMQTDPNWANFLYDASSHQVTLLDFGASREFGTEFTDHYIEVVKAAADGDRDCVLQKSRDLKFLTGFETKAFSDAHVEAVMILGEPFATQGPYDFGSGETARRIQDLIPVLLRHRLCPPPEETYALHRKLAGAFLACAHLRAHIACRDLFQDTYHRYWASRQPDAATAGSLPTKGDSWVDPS
Outline: (§1)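 Each enzyme is treated with drug at 1 uM in DMSO, then signal is scaled between a positive control (0%) and DMSO (100%) to give % control. Kinases with % control under 35% are scored as inhibited.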

[2] = target: T2, kinases of the scanMAX Kinase assay panel (Homo sapiens, UniProt P10721, D816V); conditions: KIT(D816V); 1 uM
T2 construct: purchased DiscoverX Co. (contract measurement) scanMAX Kinase assay panel
Outline: as §1

[3] = target: T3, kinases of the scanMAX Kinase assay panel (Homo sapiens, UniProt P50613); conditions: CDK7; 1 uM
T3 construct: purchased DiscoverX Co. (contract measurement) scanMAX Kinase assay panel
Outline: as §1

[4] = target: T4, kinases of the scanMAX Kinase assay panel (Homo sapiens, UniProt Q9H422); conditions: HIPK3; 1 uM
T4 construct: purchased DiscoverX Co. (contract measurement) scanMAX Kinase assay panel
Outline: as §1

[5] = target: T5, kinases of the scanMAX Kinase assay panel (Homo sapiens, UniProt O00238); conditions: BMPR1B; 1 uM
T5 construct: purchased DiscoverX Co. (contract measurement) scanMAX Kinase assay panel
Outline: as §1

[6] = target: T6, kinases of the scanMAX Kinase assay panel (Homo sapiens, UniProt Q52WX2); conditions: kinase SBK1; 1 uM in DMSO
T6 construct: purchased DiscoverX Co. (contract measurement) scanMAX Kinase assay panel
Outline: as §1

[7] = target: T7, kinases of the scanMAX Kinase assay panel (Homo sapiens, UniProt Q16566); conditions: CAMK4; 1 uM
T7 construct: purchased DiscoverX Co. (contract measurement) scanMAX Kinase assay panel
T7 sequence (Q16566 1-473): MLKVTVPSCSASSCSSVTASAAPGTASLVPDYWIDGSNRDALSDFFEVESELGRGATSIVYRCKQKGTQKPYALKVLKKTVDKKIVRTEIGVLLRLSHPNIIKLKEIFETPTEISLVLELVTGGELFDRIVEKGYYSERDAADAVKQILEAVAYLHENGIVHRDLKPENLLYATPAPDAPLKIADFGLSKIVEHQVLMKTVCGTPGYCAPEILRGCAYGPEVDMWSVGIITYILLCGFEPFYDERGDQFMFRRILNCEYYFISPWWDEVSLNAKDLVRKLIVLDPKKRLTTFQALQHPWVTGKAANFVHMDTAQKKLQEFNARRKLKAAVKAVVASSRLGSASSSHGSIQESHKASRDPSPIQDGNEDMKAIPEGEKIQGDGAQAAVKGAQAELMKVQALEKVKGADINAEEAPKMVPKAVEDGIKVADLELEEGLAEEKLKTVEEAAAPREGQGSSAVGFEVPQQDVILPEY
Outline: as §1

[8] = target: T8, kinases of the scanMAX Kinase assay panel (Homo sapiens, UniProt O60674); conditions: JAK2(JH1domain-catalytic); 1 uM
T8 construct: purchased DiscoverX Co. (contract measurement) scanMAX Kinase assay panel
Outline: as §1

[9] = target: T9, kinases of the scanMAX Kinase assay panel (Homo sapiens, UniProt Q13523); conditions: PRP4; 1 uM
T9 construct: purchased DiscoverX Co. (contract measurement) scanMAX Kinase assay panel
Outline: as §1

[10] = target: T10, kinases of the scanMAX Kinase assay panel (Homo sapiens, UniProt Q14164); conditions: IKK-epsilon; 1 uM
T10 construct: purchased DiscoverX Co. (contract measurement) scanMAX Kinase assay panel
T10 sequence (Q14164 1-716): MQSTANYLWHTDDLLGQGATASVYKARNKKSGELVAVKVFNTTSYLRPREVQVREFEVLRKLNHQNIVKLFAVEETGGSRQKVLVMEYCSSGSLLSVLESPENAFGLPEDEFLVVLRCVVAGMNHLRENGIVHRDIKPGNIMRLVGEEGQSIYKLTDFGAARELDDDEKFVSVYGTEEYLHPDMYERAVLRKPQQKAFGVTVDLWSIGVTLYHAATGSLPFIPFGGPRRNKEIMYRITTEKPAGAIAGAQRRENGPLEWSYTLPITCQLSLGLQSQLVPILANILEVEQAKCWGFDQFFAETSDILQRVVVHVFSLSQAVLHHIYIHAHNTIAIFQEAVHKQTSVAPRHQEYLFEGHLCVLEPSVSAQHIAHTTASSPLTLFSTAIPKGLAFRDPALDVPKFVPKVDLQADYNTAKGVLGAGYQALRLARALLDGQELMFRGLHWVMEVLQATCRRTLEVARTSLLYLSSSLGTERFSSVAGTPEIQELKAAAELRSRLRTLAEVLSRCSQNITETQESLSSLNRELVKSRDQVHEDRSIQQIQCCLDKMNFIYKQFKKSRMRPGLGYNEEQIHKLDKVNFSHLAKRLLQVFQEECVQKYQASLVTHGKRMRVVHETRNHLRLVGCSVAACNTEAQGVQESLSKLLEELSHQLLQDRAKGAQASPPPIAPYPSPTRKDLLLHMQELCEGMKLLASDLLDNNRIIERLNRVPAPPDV
Outline: as §1

T2 sequence (P10721 26-976 D816V): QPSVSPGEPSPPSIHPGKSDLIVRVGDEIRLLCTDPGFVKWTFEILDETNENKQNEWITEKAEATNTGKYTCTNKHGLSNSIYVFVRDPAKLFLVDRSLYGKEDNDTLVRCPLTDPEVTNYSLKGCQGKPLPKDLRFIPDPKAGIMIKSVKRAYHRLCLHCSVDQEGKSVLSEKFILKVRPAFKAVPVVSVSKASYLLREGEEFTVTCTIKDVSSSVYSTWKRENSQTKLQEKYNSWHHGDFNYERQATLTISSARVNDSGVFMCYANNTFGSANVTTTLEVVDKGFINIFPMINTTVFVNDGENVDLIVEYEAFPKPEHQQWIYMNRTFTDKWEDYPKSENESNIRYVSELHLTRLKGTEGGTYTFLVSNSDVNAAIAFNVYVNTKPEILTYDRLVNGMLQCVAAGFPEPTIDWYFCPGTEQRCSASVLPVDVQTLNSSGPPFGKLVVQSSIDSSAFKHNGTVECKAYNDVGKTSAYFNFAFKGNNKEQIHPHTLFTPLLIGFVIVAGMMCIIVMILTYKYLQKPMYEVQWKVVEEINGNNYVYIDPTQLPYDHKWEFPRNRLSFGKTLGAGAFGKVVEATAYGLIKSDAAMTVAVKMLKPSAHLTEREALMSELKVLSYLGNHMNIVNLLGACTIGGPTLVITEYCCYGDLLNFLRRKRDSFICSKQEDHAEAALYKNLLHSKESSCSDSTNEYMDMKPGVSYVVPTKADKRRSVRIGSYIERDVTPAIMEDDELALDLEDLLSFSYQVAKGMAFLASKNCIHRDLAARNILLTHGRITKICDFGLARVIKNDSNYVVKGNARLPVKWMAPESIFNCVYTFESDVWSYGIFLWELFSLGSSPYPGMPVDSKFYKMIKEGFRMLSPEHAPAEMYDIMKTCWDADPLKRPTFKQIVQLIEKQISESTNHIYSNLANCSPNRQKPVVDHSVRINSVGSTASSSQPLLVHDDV
T9 sequence (Q13523 whole entry): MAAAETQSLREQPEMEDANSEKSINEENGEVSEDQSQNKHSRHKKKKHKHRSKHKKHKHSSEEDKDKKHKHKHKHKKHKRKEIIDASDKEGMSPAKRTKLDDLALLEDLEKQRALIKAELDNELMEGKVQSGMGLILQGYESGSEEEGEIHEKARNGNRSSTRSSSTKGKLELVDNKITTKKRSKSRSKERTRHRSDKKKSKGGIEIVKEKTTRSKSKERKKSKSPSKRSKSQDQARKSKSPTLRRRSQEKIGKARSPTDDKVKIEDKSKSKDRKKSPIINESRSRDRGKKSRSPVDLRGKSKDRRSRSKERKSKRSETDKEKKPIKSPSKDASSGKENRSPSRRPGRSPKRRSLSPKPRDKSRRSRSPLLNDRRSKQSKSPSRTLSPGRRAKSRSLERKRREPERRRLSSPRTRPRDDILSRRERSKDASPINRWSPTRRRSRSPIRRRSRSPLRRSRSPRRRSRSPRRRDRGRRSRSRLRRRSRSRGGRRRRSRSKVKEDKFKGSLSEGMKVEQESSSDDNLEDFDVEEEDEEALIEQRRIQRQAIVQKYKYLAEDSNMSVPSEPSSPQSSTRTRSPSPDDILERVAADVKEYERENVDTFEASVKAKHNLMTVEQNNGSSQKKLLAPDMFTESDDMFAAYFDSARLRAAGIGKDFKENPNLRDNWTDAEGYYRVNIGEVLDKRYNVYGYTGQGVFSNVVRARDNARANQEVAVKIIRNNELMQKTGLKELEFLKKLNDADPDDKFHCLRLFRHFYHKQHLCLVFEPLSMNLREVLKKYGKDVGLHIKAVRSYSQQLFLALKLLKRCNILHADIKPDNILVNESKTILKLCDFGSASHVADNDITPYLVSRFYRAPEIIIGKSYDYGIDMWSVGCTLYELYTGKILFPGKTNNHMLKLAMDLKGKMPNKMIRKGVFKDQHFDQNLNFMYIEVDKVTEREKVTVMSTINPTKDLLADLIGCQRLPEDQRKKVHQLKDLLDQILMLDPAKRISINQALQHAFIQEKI
T5 sequence (O00238 14-502): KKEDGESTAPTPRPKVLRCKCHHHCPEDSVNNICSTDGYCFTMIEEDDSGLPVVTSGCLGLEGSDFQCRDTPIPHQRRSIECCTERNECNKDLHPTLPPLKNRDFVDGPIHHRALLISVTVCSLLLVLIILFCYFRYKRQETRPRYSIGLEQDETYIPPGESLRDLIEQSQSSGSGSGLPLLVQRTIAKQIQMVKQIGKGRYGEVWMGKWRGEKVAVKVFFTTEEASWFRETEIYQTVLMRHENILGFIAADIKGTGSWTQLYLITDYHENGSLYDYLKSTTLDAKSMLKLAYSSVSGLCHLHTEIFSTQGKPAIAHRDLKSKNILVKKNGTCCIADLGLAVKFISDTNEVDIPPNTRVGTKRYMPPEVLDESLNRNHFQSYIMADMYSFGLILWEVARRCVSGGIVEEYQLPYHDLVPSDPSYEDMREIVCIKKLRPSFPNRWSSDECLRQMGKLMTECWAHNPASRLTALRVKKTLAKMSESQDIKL
T8 sequence (O60674 whole entry): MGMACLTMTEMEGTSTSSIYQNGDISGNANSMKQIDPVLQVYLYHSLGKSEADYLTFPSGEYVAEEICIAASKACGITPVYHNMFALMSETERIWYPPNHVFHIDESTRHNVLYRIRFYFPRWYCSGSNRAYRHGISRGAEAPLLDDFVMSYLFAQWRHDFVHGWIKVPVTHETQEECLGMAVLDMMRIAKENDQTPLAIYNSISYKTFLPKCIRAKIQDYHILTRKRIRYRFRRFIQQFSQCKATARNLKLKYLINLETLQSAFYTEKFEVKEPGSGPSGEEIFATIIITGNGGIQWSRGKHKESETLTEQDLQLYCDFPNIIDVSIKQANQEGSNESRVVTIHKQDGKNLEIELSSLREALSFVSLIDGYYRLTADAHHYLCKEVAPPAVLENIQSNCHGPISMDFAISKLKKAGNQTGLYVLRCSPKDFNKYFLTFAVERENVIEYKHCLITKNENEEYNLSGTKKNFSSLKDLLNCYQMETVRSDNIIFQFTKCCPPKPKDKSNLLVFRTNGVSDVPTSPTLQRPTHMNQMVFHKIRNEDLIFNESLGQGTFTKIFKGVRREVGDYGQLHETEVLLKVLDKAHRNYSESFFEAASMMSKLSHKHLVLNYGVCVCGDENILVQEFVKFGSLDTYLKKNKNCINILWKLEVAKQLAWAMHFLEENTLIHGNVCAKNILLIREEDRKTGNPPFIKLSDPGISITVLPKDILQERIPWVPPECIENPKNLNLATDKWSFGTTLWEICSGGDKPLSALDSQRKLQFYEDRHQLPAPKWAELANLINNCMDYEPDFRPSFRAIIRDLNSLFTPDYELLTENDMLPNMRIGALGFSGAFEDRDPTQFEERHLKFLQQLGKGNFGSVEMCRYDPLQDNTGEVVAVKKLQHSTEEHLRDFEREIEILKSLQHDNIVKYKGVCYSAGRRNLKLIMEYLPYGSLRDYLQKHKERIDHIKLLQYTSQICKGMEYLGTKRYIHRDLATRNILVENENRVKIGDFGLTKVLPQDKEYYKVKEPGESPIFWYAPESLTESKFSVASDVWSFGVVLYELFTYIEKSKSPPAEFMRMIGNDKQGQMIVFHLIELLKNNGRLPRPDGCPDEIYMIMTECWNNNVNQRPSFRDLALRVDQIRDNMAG
T4 sequence (Q9H422 whole entry): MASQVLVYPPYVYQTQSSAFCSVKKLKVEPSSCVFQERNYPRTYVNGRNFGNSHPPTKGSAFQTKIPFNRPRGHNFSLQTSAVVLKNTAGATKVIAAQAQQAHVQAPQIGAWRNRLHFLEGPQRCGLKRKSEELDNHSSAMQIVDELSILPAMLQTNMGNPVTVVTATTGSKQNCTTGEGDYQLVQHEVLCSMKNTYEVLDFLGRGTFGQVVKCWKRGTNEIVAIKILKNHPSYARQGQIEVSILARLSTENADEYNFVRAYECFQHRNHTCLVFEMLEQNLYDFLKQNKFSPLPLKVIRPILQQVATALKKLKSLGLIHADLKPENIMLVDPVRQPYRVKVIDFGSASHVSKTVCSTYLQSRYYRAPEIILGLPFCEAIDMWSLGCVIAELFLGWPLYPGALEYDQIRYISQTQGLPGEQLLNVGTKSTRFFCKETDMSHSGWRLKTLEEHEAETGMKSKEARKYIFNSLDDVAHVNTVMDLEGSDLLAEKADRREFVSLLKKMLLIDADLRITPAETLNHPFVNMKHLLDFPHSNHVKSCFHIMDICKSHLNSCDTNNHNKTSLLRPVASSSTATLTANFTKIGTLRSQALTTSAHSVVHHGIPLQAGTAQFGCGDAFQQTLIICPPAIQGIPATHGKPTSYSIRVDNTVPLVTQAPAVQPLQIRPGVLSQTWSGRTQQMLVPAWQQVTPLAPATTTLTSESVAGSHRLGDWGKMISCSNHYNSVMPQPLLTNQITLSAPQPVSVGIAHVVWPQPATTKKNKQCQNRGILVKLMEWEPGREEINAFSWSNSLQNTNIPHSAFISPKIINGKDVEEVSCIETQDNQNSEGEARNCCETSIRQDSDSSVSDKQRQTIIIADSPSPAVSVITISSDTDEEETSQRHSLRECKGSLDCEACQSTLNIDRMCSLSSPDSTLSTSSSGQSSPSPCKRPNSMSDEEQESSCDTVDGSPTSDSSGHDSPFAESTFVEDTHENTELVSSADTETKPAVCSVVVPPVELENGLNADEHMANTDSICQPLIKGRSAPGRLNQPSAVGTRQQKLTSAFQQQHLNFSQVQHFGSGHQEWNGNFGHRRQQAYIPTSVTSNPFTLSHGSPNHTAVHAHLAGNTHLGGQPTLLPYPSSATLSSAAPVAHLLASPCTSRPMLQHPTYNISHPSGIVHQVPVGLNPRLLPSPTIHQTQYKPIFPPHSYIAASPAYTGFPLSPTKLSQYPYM

`CCNc1nc(Nc2ccc(C(=O)N3CCC(N4CCOCC4)CC3)cc2OC)nc2[nH]cc(C(F)(F)F)c12` [Example 104, (4-((4-(ethylamino)-5-(trifluoromethyl)-7H-pyrrolo[2,3-d]pyrimidine-2-yl)amino)-3-methoxyphenyl)(4-morpholinopiperidine-1-yl)methanone] showed a remaining binding at 1 µM [1] of 100%, a remaining binding at 1 µM [2] of 99% and a remaining binding at 1 µM [3] of 48%. It also gave a remaining binding at 1 µM [4] of 16%, a remaining binding at 1 µM [5] of 83% and a remaining binding at 1 µM [6] of 100%. For the same compound, the remaining binding at 1 µM [7] was 27%, the remaining binding at 1 µM [8] was 100% and the remaining binding at 1 µM [9] was 89%. For the same compound, the remaining binding at 1 µM [10] was 95%.

Compound `CC1(Nc2nc(Nc3cnn([C@H]4CCN(C5COC5)C[C@@H]4F)c3Cl)nc3[nH]cc(C#N)c23)CC1` [Example 52, 2-((5-chloro-1-((3S,4S)-3-fluoro-1-(oxetane-3-yl)piperidine-4-yl)-1H-pyrazole-4-yl)amino)((1-methylcyclopropyl)amino)-7H-pyrrolo[2,3-d]pyrimidine-5-carbonitrile] has a remaining binding at 1 µM [1] of 76%, a remaining binding at 1 µM [2] of 0.15% and a remaining binding at 1 µM [3] of 19%. It also gave a remaining binding at 1 µM [4] of 6.2%, a remaining binding at 1 µM [5] of 22% and a remaining binding at 1 µM [6] of 21%. The remaining binding at 1 µM [7] was 55%, the remaining binding at 1 µM [8] was 0% and the remaining binding at 1 µM [9] was 19%. For the same compound, the remaining binding at 1 µM [10] was 9.9%.

`CNc1nc(Nc2ccc(C(=O)N3CCOCC3)cc2OC)nc2[nH]cc(C#N)c12` [Example 1, 2-((2-methoxy-4-(morpholine-4-carbonyl)phenyl)amino)-4-(methylamino)-7H-pyrrolo[2,3-d]pyrimidine-5-carbonitrile] was tested, and the remaining binding at 1 µM [1] was 100%, the remaining binding at 1 µM [2] was 89% and the remaining binding at 1 µM [3] was 67%. The remaining binding at 1 µM [4] was 64%, the remaining binding at 1 µM [5] was 98% and the remaining binding at 1 µM [6] was 72%. For the same compound, the remaining binding at 1 µM [7] was 99%, the remaining binding at 1 µM [8] was 83% and the remaining binding at 1 µM [9] was 100%. For the same compound, the remaining binding at 1 µM [10] was 98%.
